Literature values, collected in patent US10744140B2, “Synergistic nutraceutical beverage formulations providing enhanced thermogenesis, mental clarity, and stamina while minimizing adrenaline and dopamine concentration perturbations associated with withdrawal” (Power Supplements, LLC., priority 2016, dated 2020).

How the values were obtained:
rhesus monkey TAAR1 = biological target: T1, rhesus monkey TAAR1 (Macaca mulatta, UniProt Q8HZ64); settings: HEK293 cells transfected with rhesus monkey TAAR1, CRE-Luc reporter
T1 construct: expressed in transfected cells; host or cells: HEK293 (transient, with CRE-Luc and pGL4.73 reporters)
T1 sequence (Q8HZ64 1-338): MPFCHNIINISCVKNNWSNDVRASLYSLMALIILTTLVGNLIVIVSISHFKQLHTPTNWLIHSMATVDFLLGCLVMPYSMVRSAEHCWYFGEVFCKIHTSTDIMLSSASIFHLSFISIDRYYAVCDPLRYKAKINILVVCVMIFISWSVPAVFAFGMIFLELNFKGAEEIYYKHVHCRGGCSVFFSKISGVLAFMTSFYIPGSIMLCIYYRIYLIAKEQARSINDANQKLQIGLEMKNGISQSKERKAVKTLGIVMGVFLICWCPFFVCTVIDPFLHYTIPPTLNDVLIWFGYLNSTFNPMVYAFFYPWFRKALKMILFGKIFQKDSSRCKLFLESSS

[1] = biological target: T2, rat trace amine receptor (rTAR1) (Rattus norvegicus, UniProt Q923Y9); settings: 1 μM, HEK 293 cells
T2 construct: expressed in transfected cells; host or cells: HEK 293

young females = settings: 50 mg, two months
primate brain = settings: acute administration
humans = settings: higher of two single doses (100 mg, 250 mg)
[2] = test system: DAT (dopamine transporter); settings: cells expressing TAAR1 and DAT
[3] = test system: NET (norepinephrine transporter); settings: cells expressing TAAR1 and NET
[4] = test system: SERT (serotonin transporter); settings: cells expressing TAAR1 and SERT

T2 sequence (Q923Y9 whole entry): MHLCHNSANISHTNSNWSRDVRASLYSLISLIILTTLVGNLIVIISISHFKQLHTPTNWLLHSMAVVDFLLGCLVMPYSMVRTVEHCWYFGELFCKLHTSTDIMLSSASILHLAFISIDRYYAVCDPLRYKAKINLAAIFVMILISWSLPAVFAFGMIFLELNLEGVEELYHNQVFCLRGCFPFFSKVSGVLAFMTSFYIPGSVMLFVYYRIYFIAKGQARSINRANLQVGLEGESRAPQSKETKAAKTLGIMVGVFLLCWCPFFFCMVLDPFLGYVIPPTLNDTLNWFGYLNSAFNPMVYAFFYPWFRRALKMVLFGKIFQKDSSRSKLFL

NCC(O)c1ccc(O)cc1 (stereo not shown) [OCT, octopamine]
TAAR1 activation (cAMP production) (rhesus monkey TAAR1): activates TAAR1

NCCc1c[nH]c2ccccc12 [TRY, tryptamine]
TAAR1 activation (cAMP production) (rhesus monkey TAAR1): activates TAAR1

CN(C)CCc1ccc(O)cc1 [hordenine, N,N-dimethyltyramine]
blood pressure (dogs and rats): increased systolic and diastolic blood pressure | effect on the heart (strength of contraction) (dogs and rats): positive inotropic effect on the heart | movements of the gut (dogs and rats): inhibited | peripheral blood flow (dogs and rats): increased the volume of peripheral blood flow | heart rate (horses; 2 mg/kg intravenous (IV)): doubled | increase of the rate of respiration (horses; 2 mg/kg intravenous (IV)): 250% | respiratory distress (horses; 2 mg/kg intravenous (IV)): substantial respiratory distress | time until all effects disappeared (horses; 2 mg/kg intravenous (IV)): ≤ 30 min | effects after oral dosing (horses; same dose (2 mg/kg) given orally): did not produce any of the effects seen after parenteral administration | potency in stimulating cAMP production through the rTAR1 [1]: almost identical potency to that of the same concentration of β-phenethylamine

Cc1ncc(C[n+]2csc(CCO)c2C)c(N)n1 [thiamine]
attention (decision times in choice reaction time tasks) (young females): improved attention | mood (Profile of Mood States) (young females): improved mood

NCCc1ccc(O)cc1 [tyramine]
potency in stimulating cAMP production through the rTAR1 [1]: slightly higher than that of hordenine | TAAR1 activation (cAMP production) (rhesus monkey TAAR1): activates TAAR1

Cc1ncc(CO)c(CO)c1O [vitamin B6, pyridoxine]
serotonin synthesis in the brain (primate brain): increased serotonin synthesis | dream salience (humans): increase in dream salience

NCCc1ccccc1 [β-PEA, 2-phenylethylamine]
uptake of dopamine by its transporter [2]: reduces the uptake of the monoamines | uptake of norepinephrine by its transporter [3]: reduces the uptake of the monoamines | uptake of serotonin by its transporter [4]: reduces the uptake of the monoamines | TAAR1 activation (cAMP production) (rhesus monkey TAAR1): activates TAAR1
